pEC50: −log10 of the molar value.
Tests used:
dengue virus type 2 = test: Functional assay to measure dose dependent changes in antiviral-drug inhibitory efficacy against Dengue virus type 2 New Guinea C in Vero E6 miRFP670 cells (cotreated with P-gp inhibitor, CP100356). Cells are treated with antiviral candidates that are serially diluted, following infection, cells are fixed. EC50 is reported via analysis of fluorescence intensity using high-content imager. The …; type: organism-based, Chlorocebus sabaeus, Vero C1008; settings: Dengue virus; for EC90: P-gp concentration 500 nM, P-gp inhibitor CP100356
Zika virus = test: Functional CPE-based assay to measure dose dependent changes in antiviral-drug inhibitory efficacy against Zika virus MR766 in Vero E6 miRFP670 cells (cotreated with P-gp inhibitor, CP100356). Cells are treated with antiviral candidates that are serially diluted. EC50 is reported via analysis of MTS assay as a readout of CPE. The assay has been performed by KU Leuven.; type: organism-based, Chlorocebus sabaeus, Vero C1008; settings: Zika virus

Row | Compound | pEC50 (dengue virus type 2; Vero C1008) | pEC50 (Zika virus; Vero C1008) | other results
1 | Cc1ncc(-c2cc(F)cc(C(=O)Nc3ccc4c(c3)CNC4)c2)o1 | 4.78 | < 5.20 | EC90 (dengue virus type 2; Vero C1008, Baseline response 0 %, Hill slope -0.224, Maximum measured 78.762 %, Maximum response 100 %, Minimum measured 32.755 %, R squared 0.24): > 50 µM; EC90 (Zika virus; Vero C1008, Baseline response 0 %, Hill slope 1.881, Maximum measured 43.228 %, Maximum response 100 %, Minimum measured 5.06 %, P-gp concentration 500 nM, R squared 0.9, P-gp inhibitor CP100356): > 6.25 µM
2 | O=C(Nc1cc2c(cc1Br)CNC2)c1cc(Cl)cc2[nH]ncc12 | < 4.90 | 5.81 | EC90 (dengue virus type 2; Vero C1008, Baseline response 0 %, Hill slope -0.294, Maximum measured 95.105 %, Maximum response 100 %, Minimum measured 44.86 %, R squared 0.086): > 12.5 µM; EC90 (Zika virus; Vero C1008, Baseline response 0 %, EC90 CI (lower) 0.641 uM, EC90 CI (upper) 7.527 uM, Hill slope 6.115, Maximum measured 127.201 %, Maximum response 100 %, Minimum measured 6.803 %, P-gp concentration 500 nM, R squared 0.89, P-gp inhibitor CP100356): 2.2 µM
3 | O=C(Nc1ccc2c(c1)CN[C@H]2C[C@H](O)CO)c1cc(F)cc2[nH]ncc12 | < 4.30 | < 4.30 | EC90 (dengue virus type 2; Vero C1008, Baseline response 0 %, Hill slope 0.494, Maximum measured 181.349 %, Maximum response 100 %, Minimum measured 67.92 %, R squared 0.043): > 50 µM; EC90 (Zika virus; Vero C1008, Maximum measured 5.346 %, Minimum measured 2.665 %, P-gp concentration 500 nM, P-gp inhibitor CP100356): > 50 µM
4 | O=C(NCC(F)F)[C@H](Nc1ccc2c(c1)CNC2)c1cc(F)cc2[nH]ccc12 | < 4.30 | < 4.30 | EC90 (dengue virus type 2; Vero C1008, Maximum measured 207.16 %, Minimum measured 119.939 %): > 50 µM; EC90 (Zika virus; Vero C1008, Baseline response 0 %, Hill slope 0.152, Maximum measured 3.288 %, Maximum response 100 %, Minimum measured 0.363 %, P-gp concentration 500 nM, R squared 0.104, P-gp inhibitor CP100356): > 50 µM
5 | CCCn1cc2c(C(=O)Nc3ccc4c(c3)CNC4)cc(Cl)cc2n1 | < 5.51 | 5.52 | EC90 (dengue virus type 2; Vero C1008, Baseline response 0 %, Hill slope 1.203, Maximum measured 92.059 %, Maximum response 100 %, Minimum measured 55.102 %, R squared 0.785): > 3.12 µM; EC90 (Zika virus; Vero C1008): 3.55 µM
6 | O=C(NCCC1CC1)[C@H](Nc1ccc2c(c1)CNC2)c1cc(Cl)cc(C2CC2)c1 | < 4.90 | 5.24 | EC90 (dengue virus type 2; Vero C1008, Baseline response 0 %, Hill slope -1.051, Maximum measured 118.853 %, Maximum response 100 %, Minimum measured 76.41 %, R squared 0.201): > 12.5 µM; EC90 (Zika virus; Vero C1008, Baseline response 0 %, Hill slope 7.335, Maximum measured 65.758 %, Maximum response 100 %, Minimum measured 0.052 %, P-gp concentration 500 nM, R squared 0.996, P-gp inhibitor CP100356): > 6.25 µM
7 | O=C(Nc1ccc2c(c1)CNC2)c1cc(F)cc(-c2cccnc2)c1 | 6.19 | 5.20 | EC90 (dengue virus type 2; Vero C1008, Baseline response 0 %, Hill slope -0.704, Maximum measured 60.172 %, Maximum response 100 %, Minimum measured 15.025 %, R squared 0.92): > 12.5 µM; EC90 (Zika virus; Vero C1008, Baseline response 0 %, Hill slope 23.488, Maximum measured 123.724 %, Maximum response 100 %, Minimum measured 1.449 %, P-gp concentration 500 nM, R squared 0.923, P-gp inhibitor CP100356): 6.91 µM
8 | O=C(Nc1ccc2c(c1)CNC2)c1cccc2c1[C@]1(CCNC1)C(=O)N2 | < 4.90 | < 4.30 | EC90 (dengue virus type 2; Vero C1008, Maximum measured 172.695 %, Minimum measured 97.519 %): > 12.5 µM; EC90 (Zika virus; Vero C1008, Baseline response 0 %, Hill slope 1.1, Maximum measured 3.95 %, Maximum response 100 %, Minimum measured -2.689 %, P-gp concentration 500 nM, R squared 0.205, P-gp inhibitor CP100356): > 50 µM
9 | Cc1ncc(-c2cc(F)cc(C(=O)Nc3ccc4c(c3)CNC4)c2)s1 | < 4.60 | 5.42 | EC90 (dengue virus type 2; Vero C1008, Maximum measured 125.186 %, Minimum measured 53.808 %): > 25 µM; EC90 (Zika virus; Vero C1008, Baseline response 0 %, EC90 CI (lower) 3.392 uM, EC90 CI (upper) 11.052 uM, Hill slope 4.52, Maximum measured 126.226 %, Maximum response 100 %, Minimum measured 6.868 %, P-gp concentration 500 nM, R squared 0.912, P-gp inhibitor CP100356): 6.12 µM
10 | O=C(Nc1cc(Br)c2c(c1)CNC2)c1cc(F)cc2[nH]ncc12 | < 4.30 | 5.81 | EC90 (dengue virus type 2; Vero C1008, Baseline response 0 %, Hill slope -0.743, Maximum measured 120.32 %, Maximum response 100 %, Minimum measured 52.999 %, R squared 0.166): > 50 µM; EC90 (Zika virus; Vero C1008, Baseline response 0 %, Hill slope 40.279, Maximum measured 114.894 %, Maximum response 100 %, Minimum measured 2.051 %, P-gp concentration 500 nM, R squared 0.957, P-gp inhibitor CP100356): 1.65 µM
11 | O=C(NCC(F)F)[C@H](Nc1ccc2c(c1)CNC2)c1cc(F)cc2[nH]ncc12 | < 4.30 | 4.75 | EC90 (dengue virus type 2; Vero C1008, Maximum measured 213.694 %, Minimum measured 101.734 %): > 50 µM; EC90 (Zika virus; Vero C1008, Baseline response 0 %, Hill slope 1.433, Maximum measured 86.437 %, Maximum response 100 %, Minimum measured 5.781 %, P-gp concentration 500 nM, R squared 0.963, P-gp inhibitor CP100356): > 50 µM
12 | O=C(Nc1ccc2c(c1)CNC2)c1cc(F)cc(-c2c[nH]c(=O)c(F)c2)c1 | < 4.60 | < 4.30 | EC90 (dengue virus type 2; Vero C1008, Baseline response 0 %, Hill slope 1.228, Maximum measured 158.309 %, Maximum response 100 %, Minimum measured 64.759 %, R squared 0.303): > 25 µM; EC90 (Zika virus; Vero C1008, Maximum measured 1.475 %, Minimum measured -1.93 %, P-gp concentration 500 nM, P-gp inhibitor CP100356): > 50 µM
13 | O=C(Nc1cc2c(cc1C1CC1)CNC2)c1cc(F)cc2[nH]ncc12 | < 5.51 | 5.15 | EC90 (dengue virus type 2; Vero C1008, Maximum measured 158.599 %, Minimum measured 73.357 %): > 3.12 µM; EC90 (Zika virus; Vero C1008, Baseline response 0 %, EC90 CI (lower) 6.176 uM, EC90 CI (upper) 30.178 uM, Hill slope 3.376, Maximum measured 139.956 %, Maximum response 100 %, Minimum measured 0.398 %, P-gp concentration 500 nM, R squared 0.839, P-gp inhibitor CP100356): 13.7 µM
14 | O=C(Nc1ccc2c(c1)CNC2)c1cc(Cl)cc2[nH]c(-c3cc(C4CC4)[nH]n3)nc12 | < 5.51 | < 6.11 | EC90 (dengue virus type 2; Vero C1008, Maximum measured 213.616 %, Minimum measured 78.099 %): > 3.12 µM; EC90 (Zika virus; Vero C1008, Baseline response 0 %, Hill slope 2.134, Maximum measured 7.792 %, Maximum response 100 %, Minimum measured 1.889 %, P-gp concentration 500 nM, R squared 0.797, P-gp inhibitor CP100356): > 0.781 µM
15 | O=C(Nc1ccc2c(c1)CN[C@H]2CCO)c1cc(F)cc2[nH]ncc12 | < 4.30 | < 4.30 | EC90 (dengue virus type 2; Vero C1008, Baseline response 0 %, Hill slope 0.366, Maximum measured 128.215 %, Maximum response 100 %, Minimum measured 81.639 %, R squared 0.156): > 50 µM; EC90 (Zika virus; Vero C1008, Baseline response 0 %, Hill slope 1.133, Maximum measured 29.989 %, Maximum response 100 %, Minimum measured 0.147 %, P-gp concentration 500 nM, R squared 0.888, P-gp inhibitor CP100356): > 50 µM
16 | C=CC[C@H]1NCc2cc(NC(=O)c3cc(F)cc4c3CC(=O)N4)ccc21 | < 4.30 | 5.09 | EC90 (dengue virus type 2; Vero C1008, Baseline response 0 %, Hill slope 1.022, Maximum measured 178.628 %, Maximum response 100 %, Minimum measured 80.7 %, R squared 0.039): > 50 µM; EC90 (Zika virus; Vero C1008): 19.4 µM
17 | Cc1cnccc1-c1cc(NC(=O)c2cc(F)cc3[nH]ncc23)cc2c1CNC2 | < 4.60 | < 4.30 | EC90 (dengue virus type 2; Vero C1008, Maximum measured 259.167 %, Minimum measured 80.59 %): > 25 µM; EC90 (Zika virus; Vero C1008, Baseline response 0 %, Hill slope 2.277, Maximum measured 10.357 %, Maximum response 100 %, Minimum measured -2.491 %, P-gp concentration 500 nM, R squared 0.469, P-gp inhibitor CP100356): > 50 µM
18 | Cc1cc(-c2cc(F)cc(C(=O)Nc3ccc4c(c3)CNC4)c2)[nH]n1 | < 4.30 | 4.71 | EC90 (dengue virus type 2; Vero C1008, Baseline response 0 %, Hill slope 1.641, Maximum measured 129.562 %, Maximum response 100 %, Minimum measured 66.397 %, R squared 0.205): > 50 µM; EC90 (Zika virus; Vero C1008, Baseline response 0 %, Hill slope 1.404, Maximum measured 64.496 %, Maximum response 100 %, Minimum measured 4.475 %, P-gp concentration 500 nM, R squared 0.907, P-gp inhibitor CP100356): > 25 µM
19 | N#Cc1cccc(-c2nc3c(C(=O)Nc4ccc5c(c4)CNC5)cc(Cl)cc3[nH]2)c1 | < 4.30 | < 5.51 | EC90 (dengue virus type 2; Vero C1008, Maximum measured 129.968 %, Minimum measured 100.984 %): > 50 µM; EC90 (Zika virus; Vero C1008, Baseline response 0 %, Hill slope 0.859, Maximum measured 7.667 %, Maximum response 100 %, Minimum measured 0.919 %, P-gp concentration 500 nM, R squared 0.501, P-gp inhibitor CP100356): > 3.12 µM
20 | O=C(Nc1cc2c(c(-c3ccnnc3)c1)CNC2)c1cc(Cl)cc2[nH]ncc12 | < 5.20 | < 4.30 | EC90 (dengue virus type 2; Vero C1008, Baseline response 0 %, Hill slope 3.411, Maximum measured 174.98 %, Maximum response 100 %, Minimum measured 62.735 %, R squared 0.059): > 6.25 µM; EC90 (Zika virus; Vero C1008, Baseline response 0 %, Hill slope 0.648, Maximum measured 22.176 %, Maximum response 100 %, Minimum measured 1.861 %, P-gp concentration 500 nM, R squared 0.877, P-gp inhibitor CP100356): > 50 µM

Reference: ChEMBL document CHEMBL5661943, “ASAP - In vitro antiviral effect” (2024)
